From patent publication US20250059139A1, “COMPOUNDS FOR TREATMENT OF CANCER” (THE JOHNS HOPKINS UNIVERSITY, priority 2021, published 2025) come the findings set out here.

Read-outs that look alike come from different tables or passages of the source. Some results are limits rather than exact numbers.

One assay relates to LNCaP cells. Description: In vitro growth of LNCaP cells. It counts as cell-based, human. As to conditions: for LNCaP growth when combined with 3 nM docetaxel: 10 μM compound + 3 nM docetaxel. The text has this:
Prostate Cancer Models. The source, history, and characteristics of the human prostate cancer cell lines and PDXs used, as well as cell culture conditions for their in vitro maintenance and the in vivo protocol for xenograft growth in triple immune-deficient NSG (i.e. NOD.Cg-PrkdcScidIl2rgtmlWji/Szj), adult (>8 week old) male mice obtained from the Sidney Kimmel Comprehensive Cancer Center (SKCCC) Animal Core Facility are described previously (Isaacs 2013; Brennen et al. JCI Insight. 2021, 6(8):e146827; Zhu et al. Oncogene 2020, 39(45): 6935-6949). Similar information concerning the TRAMP-C2 and B6CaP mouse prostate cancers originating in a C57BL/6J male mice are described previously (Foster et al. Cancer Res. 1997, 57: 3325-3330; Simons et al. Oncotarget. 2019, 10(64):6845-6854). In vitro growth curves were determined as described (Isaacs 2013). In vivo growth response to oral daily TasQ (10 mg/kg/d) of TRAMP-C2 mouse prostate cancers was evaluated in C57BL/6J syngeneic wild type vs. NOX-2 vs. iNOS null male mice obtained from Jackson Laboratory (Bar Harbor, ME). Growth response to oral daily TasQ (10 mg/kg/d) of TRAMP-C2 and B6CaP mouse prostate cancers was also evaluated in S100A9 null C57BL′6J male mice obtained from Dmitry Gabrilovich (Wistar Institute). All lines were mycoplasma negative using the MycoSensor PCR Assay kit (Agilent Technologies) and genetically authenticated within the last 6 months using short tandem repeat profiling conducted by the Johns Hopkins Genetic Resource Core Facility. In vitro growth curves were determined as described (Isaacs 2013). Growth response to daily oral TasQ vs. ESATA-20 (both at 10 mg/kg/d) of Myc-CaP-CR mouse prostate cancer was evaluated in syngeneic FVB/NJ castrate male mice from Jackson Laboratory. Animal studies were conducted according to animal protocols approved by Johns Hopkins Animal Care and Use Committee. Tumor volume measurements were as described previously (id.). In vivo experiments were repeated multiple independent times for each model used with 3-5 mice per treatment grouping.
Similarly, under such optimal conditions, knocking down HDAC4 expression by 50% with shRNA only decreases the growth of LNCaP cells by <25%, which is equivalent to the inhibition by TasQ at 10 μM (FIG. 22). […] In contrast to normoxic in vitro conditions, cancers outgrow their blood supply in vivo, producing a TME that is hypoxic, nutrient-limited, and acidic (low pH). For example, when prostate cancer xenografts growing subcutaneously reach a size of ˜0.2-0.3 cc, the TME is already hypoxic with a pO2 of 3.6+/−1.5 mmHg compared to 37.5+/−8.6 mmHg in normal tissue (Dalrymple et al. Prostate 72, 638-648 (2012)). […]

Assay [1] relates to HIF-1α protein in LNCaP cells. The assay can be described thus: Nuclear HIF-1α protein level in LNCaP cells (immunoblot). In kind it is cell-based, human. The following applies: LNCaP cells in vitro, read-out: IC50 for decreasing nuclear HIF-1α protein. The protocol:
Western Blot Analysis. Analysis and quantification of protein expression via immunoblot was performed as previously described (Brennen 2021). All assays were performed with total cell lysates from an equal number (i.e., 100,000) of cells loaded per lane for accurate comparisons across cell lines and conditions.
[…] is an HDAC4 client (see, e.g., Isaacs 2013) binding between AA 603-788 in its inhibitory domain to HDAC4 (Seo et al. FEBS Lett 583, 55-604 (2009)). As a client, the HDAC4/NCoR1/HDAC3 complex deacetylates the N-terminal lysines, which stabilizes and thus activates HIF-1α as a transcription factor (see, e.g., Isaacs 2013). In LNCaP cells under normoxic conditions, HIF-1α protein is low, cytoplasmic, and mostly unphosphorylated; while under hypoxic conditions, it is increased, nuclear, and phosphorylated (i.e., slower migrating band on western blot) (see, e.g., Isaacs 2013) (FIG. 30). HDAC4 KD in LNCaP prostate cancer cells prevents deacetylation-dependent stabilization, resulting in a reduction of nuclear HIF-1α protein (FIG. 31). […] The causal importance of decreased HIF-1α protein for in vivo growth was evaluated by knocking down HIF-1α protein expression in LNCaP cells (FIG. 31), and assessing xenograft growth.
(Immunoblotting shows a protein as a band on a membrane.)

One may read the IC50 as the concentration that inhibits the measured activity by half. The inhibition is the percentage by which the read-out fell short of the control. Higher therefore signals strong suppression.

For the molecule `COc1cccc2c1c(O)c(C(=O)N(c1ccc(C(F)(F)F)cc1)C1CCCCC1)c(=O)n2C` [ESATA-20], in the assay on LNCaP cells, the “LNCaP growth when combined with 3 nM docetaxel” value was “completely inhibited”. In addition, the IC50 with LNCaP cells (Homo sapiens, LNCaP line) is greater than 10000 nM; in assay [1] (Homo sapiens) it was 1000 nM.

For the molecule `COc1cccc2c1c(O)c(C(=O)N(C)c1ccc(C(F)(F)F)cc1)c(=O)n2C` [TasQ, Tasquinimod], the “LNCaP growth when combined with 3 nM docetaxel” value in the assay on LNCaP cells was “does not occur”. In addition, the inhibition at 10 µM with LNCaP cells (Homo sapiens, LNCaP, 10 μM, normoxic) was less than 25%. Also, in assay [1], the half-inhibitory concentration (IC50) came to 2500 nM.
